Data published in paper PMC10287695, “Non-covalent inhibitors of thioredoxin glutathione reductase with schistosomicidal activity in vivo” (Nature Communications, 2023).
Values joined by “and” are separate entries in the source; they are usually repeats but may differ in a detail not shown here. Equal entries are not always repeated. Where two headings read alike, the source gives them in different places.

Tests used:
S. mansoni NTS = assay: Phenotypic assessment of PZQ activity on NTS; type: cell-based; conditions: for % Effect, single replicates I, II, III / % Effect / NTS phenotypic score, Mean / IC50: 24 hour exposure; for % Effect: from mean score, 100 - Average (Test) x 100 / Average (Control); for NTS phenotypic score, Mean: score 3 (motile) to 0 (dead); for IC50: NTS phenotypic scoring
Procedure: About 200 NTS incubated at 37 °C in a 5% CO2 incubator overnight were exposed to different concentrations of PZQ (1, 5, 10, 20, 30, 40 and 50 µM) and control without treatment for 24 h in triplicate. Worm images were acquired using Keyence BZ-X800 microscope and PZQ activity evaluated phenotypically. NTS viability was assessed by scoring worms based on morphological changes and motility. Viability scores of 3 = motile, no changes to morphology and transparency, 2 = reduced motility and/or some damage to tegument as well as reduced transparency and increased granularity, 1 = severe reduction of motility and/or damage to tegument with high opacity and high granularity, and 0 = dead.

juvenile worms in mice = conditions: cited from earlier work
adult worms = system: adult worms; parameters: method as in PMID 15013742; conditions: overnight exposure followed by 8 days culture; cited from earlier work
adult worms in mice = system: adult worms in mice; parameters: method as in PMID 15013742; conditions: cited from earlier work
[1] = system: S. mansoni juvenile worms; parameters: method as in PMID 15013742; conditions: cited from earlier work
[2] = human, in vivo; cited from earlier work

## O=C(C1CCCCC1)N1CC(=O)N2CCc3ccccc3C2C1 (centres unmarked) [PZQ, praziquantel]
S. mansoni NTS; 10 µM
  % Effect, single replicates I, II, III: 9.401% and 12.151% and 16.3217%
  % Effect: 12.6338%
S. mansoni NTS; 10 µM, mean of 3 replicates
  NTS phenotypic score, Mean: 2.613
S. mansoni NTS; 20 µM
  % Effect, single replicates I, II, III: 15.8245% and 13.8003% and 19.4239%
  % Effect: 16.3511%
S. mansoni NTS; 20 µM, mean of 3 replicates
  NTS phenotypic score, Mean: 2.502
S. mansoni NTS; 30 µM
  % Effect, single replicates I, II, III: 25.0655% and 24.6184% and 29.7619%
  % Effect: 26.486%
S. mansoni NTS; 30 µM, mean of 3 replicates
  NTS phenotypic score, Mean: 2.199
S. mansoni NTS; 40 µM
  % Effect, single replicates I, II, III: 41.1572% and 48.5123% and 41.922%
  % Effect: 43.8717%
S. mansoni NTS; 40 µM, mean of 3 replicates
  NTS phenotypic score, Mean: 1.679
S. mansoni NTS; 50 µM
  % Effect, single replicates I, II, III: 60.2247% and 58.8296% and 61.8051%
  % Effect: 60.2866%
S. mansoni NTS; 50 µM, mean of 3 replicates
  NTS phenotypic score, Mean: 1.188
S. mansoni NTS; 24 h exposure
  LD50 for NTS, phenotypic analysis: 42.9 ± 0.83 µM
S. mansoni NTS; FORECAST interpolation, read-out: IC50, single replicates I, II, III
  IC50: 42.6 µM and 42.3 µM
S. mansoni NTS; Schistosoma mansoni, 24 h, FORECAST interpolation, read-out: IC50, single replicates I, II, III
  IC50: 43.9 µM
S. mansoni NTS; Schistosoma mansoni, 24 h, mean of 3 replicates, read-out: IC50, Mean
  IC50: 42.9 µM
Juvenile worms in mice; mice, 500 mg/kg, 21 d.p.i.
  reduction in worm burden: 0%
Juvenile worms in mice; mice, 500 mg/kg, 28 d.p.i.
  reduction in worm burden: 0%
Juvenile worms in mice; mice, 1,000 mg/kg, 21 d.p.i.
  reduction in worm burden: 50%
Juvenile worms in mice; mice, 1,000 mg/kg, 28 d.p.i.
  reduction in worm burden: 17%
Juvenile worms in mice; mice, doses titrated 28 d.p.i.
  ED50: 2,456 mg/kg
Adult worms
  LD50 against adult worms, female: 5.1 µM
  LD50 against adult worms, male: 1.5 µM
Adult worms in mice
  ED50 against adult worms in mice: 80 mg/kg
[1]
  LD50 of PZQ against ex vivo S. mansoni juvenile worms: 413 µM
[2]
  half-life: 1.6 h
